Here are results for two compounds from PMC3448056, “2-Benzamido-N-(1H-benzo[d]imidazol-2-yl)thiazole-4-carboxamide derivatives as potent inhibitors of CK1δ/ε” (Amino Acids, 2012).

“And” between values parts separate entries of the source, which are not always exact repeats. Equal values may be shown once. Read-outs that look alike come from different tables or passages of the source.

One assay addresses T1, CK1δkd (Rattus norvegicus, UniProt Q06486).
T1 construct: Recombinant CK1δ kinase domain (CK1δkd, NEB, Frankfurt am Main, Germany); purchased NEB, Frankfurt am Main, Germany
T1 sequence (Q06486 9-277 limits assumed): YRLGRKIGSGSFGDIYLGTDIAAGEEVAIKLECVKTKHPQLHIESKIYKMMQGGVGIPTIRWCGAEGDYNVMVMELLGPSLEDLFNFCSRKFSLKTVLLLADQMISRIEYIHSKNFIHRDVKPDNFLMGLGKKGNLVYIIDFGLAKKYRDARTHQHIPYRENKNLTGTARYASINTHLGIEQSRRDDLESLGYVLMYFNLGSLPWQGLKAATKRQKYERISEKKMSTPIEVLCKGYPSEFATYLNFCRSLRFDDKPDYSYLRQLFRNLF
Description: In vitro kinase assay, CK1δ kinase domain. The note with it: for inhibition of CK1δkd in initial screen: inhibitor 10 μM, 10 μM ATP (Fig. 1a); for mode of inhibition: inhibitor at IC50 concentration, ATP 0.01-0.5 mM (Fig. 6). The assay is classed as biochemical.

A further assay concerns the target T2, GST-mouse CK1δTV1 (Mus musculus, UniProt Q9DC28).
T2 construct: made in house; host or cells: bacteria (pGEX-2T)
Description: In vitro kinase assay, GST-mouse CK1δTV1. The format is biochemical. The text has this:
(§1) CK1δTV1 and 2 (transcription variants 1 and 2) were PCR amplified from mouse cDNA (5′-primer TV1 and 2: 5′-[…]-3′, 3′-primer TV1: 5′-[…]-3′, 3′-primer TV2: 5′-[…]-3′) and cloned into pcDNA3.1/V5-His© TOPO® TA cloning vector (Invitrogen, Karlsruhe, Germany) before being subcloned into pGEX-2T expression vector via BamHI to generate plasmids pGEX-2T-mouse CK1δTV1 (FP1170) and pGEX-2T-mouse CK1δTV2 (FP1171).
(§2) Expression and purification of the GST-fusion proteins GST-mouse p53^1–64 (FP267), GST-rat CK1δ (FP449), GST-rat CK1δ^M82F (FP1153), GST-mouse CK1δTV1 (FP1170), and GST-mouse CK1δTV2 (FP1171) was carried out as described elsewhere (Wolff et al. [2005]). Expression of fusion proteins FP1170 and 1171 was either performed at 37°C for 2 h, or at 15°C for 14 h. FP449 and FP1153 were always expressed at 15°C for 14 h.
(§3) In vitro kinase assays were carried out in the presence of various potential inhibitors of CK1δ at an ATP concentration of 0.01 mM and dimethyl sulfoxide (DMSO) solvent control as described previously (Knippschild et al. [1996]). Where indicated higher ATP concentrations (0.05, 0.1, 0.25 and 0.5 mM) were used. The fusion protein GST-mouse p53^1−64 (FP267) was used as substrate. Recombinant CK1δ kinase domain (CK1δkd, NEB, Frankfurt am Main, Germany), GST-rat CK1δ (FP449), GST-rat CK1δ^M82F (FP1153), GST-mouse CK1δTV1, GST-mouse CK1δTV2 and recombinant human CK1ε (Invitrogen, Karlsruhe, Germany) were used as sources of enzyme. Phosphorylated proteins were separated by SDS-PAGE and the protein bands were visualized on dried gels by autoradiography. The phosphorylated protein bands were excised and quantified by Cherenkov counting.

The next assay has as its target T3, GST-mouse CK1δTV2 (Mus musculus, UniProt Q9DC28).
T3 construct: made in house; host or cells: bacteria (pGEX-2T)
T3 sequence (Q9DC28 1-409 isoform Q9DC28-2): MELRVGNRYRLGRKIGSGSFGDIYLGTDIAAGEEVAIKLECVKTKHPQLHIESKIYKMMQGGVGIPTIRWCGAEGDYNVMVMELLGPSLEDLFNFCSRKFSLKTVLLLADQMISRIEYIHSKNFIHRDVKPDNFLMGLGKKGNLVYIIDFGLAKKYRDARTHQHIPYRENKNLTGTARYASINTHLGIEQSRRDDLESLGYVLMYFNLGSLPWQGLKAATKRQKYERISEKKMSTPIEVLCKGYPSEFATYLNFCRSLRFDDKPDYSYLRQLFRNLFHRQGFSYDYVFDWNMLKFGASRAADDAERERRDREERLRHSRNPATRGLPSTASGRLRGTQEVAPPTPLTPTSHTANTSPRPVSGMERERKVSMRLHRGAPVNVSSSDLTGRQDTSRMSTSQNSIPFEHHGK
Description: In vitro kinase assay, GST-mouse CK1δTV2. The assay is classed as biochemical.
Excerpt: as §1, §2, §3

For a further assay, the target named is T4, human CK1ε (Homo sapiens, UniProt P49674).
T4 construct: purchased Invitrogen, Karlsruhe, Germany
T4 sequence (P49674 whole entry): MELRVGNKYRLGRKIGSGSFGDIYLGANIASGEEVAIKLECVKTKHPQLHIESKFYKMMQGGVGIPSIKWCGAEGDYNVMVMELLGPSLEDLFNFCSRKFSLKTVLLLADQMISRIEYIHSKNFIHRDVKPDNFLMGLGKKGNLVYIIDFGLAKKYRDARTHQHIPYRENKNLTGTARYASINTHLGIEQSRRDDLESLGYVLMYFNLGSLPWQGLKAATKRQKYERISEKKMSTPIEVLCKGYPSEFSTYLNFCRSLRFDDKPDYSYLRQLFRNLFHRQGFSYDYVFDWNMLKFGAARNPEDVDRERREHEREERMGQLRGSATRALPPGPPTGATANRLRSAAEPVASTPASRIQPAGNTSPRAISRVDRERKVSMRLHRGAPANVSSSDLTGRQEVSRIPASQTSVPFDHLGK
Description: In vitro kinase assay, CK1ε. The format is biochemical. The note with it: for inhibition of CK1ε in initial screen: inhibitor 10 μM, 10 μM ATP (Fig. 1b).

In another assay the test system is Frwt648 cells. In words: Flow cytometry cell cycle analysis. The format is cell-based. Conditions: Frwt648, 2 and 4 μM, 48 h; range stated jointly for Frwt648 and mKSA and compounds 5 and 6. The method, then:
Frwt648 cells [generated by SV40-transformation of F111 cells; (Hinzpeter and Deppert [1987])] and mKSA cells [SV40-transformed Balb/c fibroblasts; (Kit et al. [1969])] were grown in Dulbecco’s modified Eagle’s medium (DMEM) supplemented with 5% fetal calf serum (FCS; Biochrom, Berlin, Germany). The fibrosarcoma cell line HT1080 (Rasheed et al. [1974]) was grown in DMEM containing 10% FCS and 2 mM glutamine while both the prostate cancer cell line DU-145 (Stone et al. [1978]) and the ovary tissue cancer cell line OVCAR-3 (Hamilton et al. [1983]) were maintained in RPMI-1640 supplemented with 10% FCS. The pancreatic cancer cell line Colo357 (Morgan et al. [1980]) was grown in DMEM/RPMI (1:1) and the colon adenocarcinoma cell line SW480 (Leibovitz et al. [1976]) in Leibovitz L-15 medium, both containing 10% FCS and 2 mM glutamine. All media were supplemented with 100 U/ml penicillin and 100 μg/ml streptomycin (Gibco, Karlsruhe, Germany) and all cell lines were grown at 37°C in a humidified 5% carbon dioxide atmosphere.
Subconfluent Frwt648, mKSA, Colo357, OVCAR-3, HT1080, DU-145 and SW480 cells were treated with 2 or 4 μM of compounds 5 or 6 for 48 h. Untreated and DMSO treated cells served as control. Cells were harvested, washed once with phosphate-buffered saline (PBS), and prepared for cell cycle analysis using the “Cycle Test Plus Kit” (BD, San Jose, USA). […]
Background: In flow cytometry, cells or beads pass a laser one at a time.

The target in the next assay is T5, DYRK1B (Homo sapiens, UniProt Q9Y463).
T5 construct: purchased Ambit Biosciences Cooperation, San Diego, USA (KINOMEscan)
T5 sequence (Q9Y463 whole entry): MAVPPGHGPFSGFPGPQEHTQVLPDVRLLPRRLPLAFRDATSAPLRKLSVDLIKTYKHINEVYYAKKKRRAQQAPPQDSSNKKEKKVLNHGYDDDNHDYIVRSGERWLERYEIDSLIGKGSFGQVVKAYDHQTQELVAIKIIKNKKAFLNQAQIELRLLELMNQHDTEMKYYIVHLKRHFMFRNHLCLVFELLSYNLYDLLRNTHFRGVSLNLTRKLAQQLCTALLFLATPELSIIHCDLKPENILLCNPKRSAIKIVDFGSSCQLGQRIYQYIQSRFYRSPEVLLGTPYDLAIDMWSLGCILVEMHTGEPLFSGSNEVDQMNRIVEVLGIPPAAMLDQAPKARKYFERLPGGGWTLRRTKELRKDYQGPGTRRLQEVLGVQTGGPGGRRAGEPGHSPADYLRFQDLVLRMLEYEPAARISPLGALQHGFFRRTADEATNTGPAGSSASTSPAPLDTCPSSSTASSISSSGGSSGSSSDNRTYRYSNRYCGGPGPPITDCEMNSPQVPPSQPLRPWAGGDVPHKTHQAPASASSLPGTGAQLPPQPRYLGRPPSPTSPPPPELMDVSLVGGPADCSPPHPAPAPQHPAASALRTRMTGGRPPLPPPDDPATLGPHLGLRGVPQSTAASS
Description: KINOMEscan selectivity profiling. The assay is classed as binding. Conditions: remaining relative to controls, read-out: %Ctrl @ 10 μM (DYRK1B). The method, then:
KINOMEscan™ was performed to determine binding constants of coumpound 5 to 442 eukaryotic kinases by Ambit Biosciences Cooperation, San Diego, USA.

Where [1] appears, read: 0.01 mM ATP, substrate GST-mouse p53^1-64, mean ± SD.
Setting [2] is: 0.01 mM ATP, substrate GST-mouse p53^1-64, mean ± SD, read-out: IC50 (μM) GST-CK1δ TV1.
Setting [3] is: 0.01 mM ATP, substrate GST-mouse p53^1-64, mean ± SD, read-out: IC50 (μM) GST-CK1δ TV2.

T2 sequence (Q9DC28 whole entry): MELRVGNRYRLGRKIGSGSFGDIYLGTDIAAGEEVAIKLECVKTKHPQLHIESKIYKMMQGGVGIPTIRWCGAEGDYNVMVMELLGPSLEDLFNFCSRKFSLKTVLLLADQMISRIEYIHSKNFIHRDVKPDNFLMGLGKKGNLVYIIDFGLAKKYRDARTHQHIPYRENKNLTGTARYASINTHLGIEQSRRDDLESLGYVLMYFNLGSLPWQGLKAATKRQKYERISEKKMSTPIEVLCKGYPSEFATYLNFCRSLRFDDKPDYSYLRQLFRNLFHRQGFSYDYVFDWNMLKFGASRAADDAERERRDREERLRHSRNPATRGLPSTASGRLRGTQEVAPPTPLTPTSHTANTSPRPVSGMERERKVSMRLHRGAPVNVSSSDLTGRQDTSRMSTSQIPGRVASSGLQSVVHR

As usually defined, the IC50 is the point on the concentration scale where inhibition reaches its midpoint. As for `O=C(Nc1nc2cc(Cl)c(F)cc2[nH]1)c1csc(NC(=O)c2ccccc2OC(F)(F)F)n1` [Compound 6, N-(5-Chloro-6-fluoro-1H-benzo[d]imidazol-2-yl)-2-(2-(trifluoromethoxy)benzamido)thiazole-4-carboxamide], the IC50 against CK1δkd (setting [1]) is 0.085 ± 0.01 µM; at GST-mouse CK1δTV1 (setting [2]), 0.048 ± 0.02 µM; at GST-mouse CK1δTV2 (setting [3]), 0.055 ± 0.02 µM; at human CK1ε (setting [1]), 0.0326 µM and 0.033 µM. The “inhibition of CK1δkd in initial screen” value against CK1δkd is on record as “significant inhibition”. Also, at CK1δkd, the mode of inhibition result is “ATP competitive inhibitors”. Also, on human CK1ε, the “inhibition of CK1ε in initial screen” value is listed as “significant inhibition”. For the same compound, the dead cells with Frwt648 cells is 35–98%.
Regarding `O=C(Nc1nc2ccc(C(F)(F)F)cc2[nH]1)c1csc(NC(=O)c2ccccc2OC(F)(F)F)n1` [Compound 5, 2-(2-(Trifluoromethoxy)benzamido)-N-(6-(trifluoromethyl)-1H-benzo[d]imidazol-2-yl)thiazole-4-carboxamide], on CK1δkd, the “inhibition of CK1δkd in initial screen” value is listed as “significant inhibition”. The mode of inhibition entry on CK1δkd is given as “ATP competitive inhibitors”. For the same compound, the IC50 is 0.022 ± 0.02 µM on GST-mouse CK1δTV1 (setting [2]); 0.066 µM against GST-mouse CK1δTV1 (IC50 CK1δTV1, 2 h, enzyme induced for 2 h at 37°C); 0.023 µM on GST-mouse CK1δTV1 (enzyme induced for 14 h at 15°C, read-out: IC50 CK1δTV1, 14 h); 0.042 ± 0.02 µM at GST-mouse CK1δTV2 (setting [3]); 0.064 µM on GST-mouse CK1δTV2 (IC50 CK1δTV2, 2 h, enzyme induced for 2 h at 37°C); 0.043 µM at GST-mouse CK1δTV2 (enzyme induced for 14 h at 15°C, read-out: IC50 CK1δTV2, 14 h). Moreover, the “inhibition of CK1ε in initial screen” value against human CK1ε was “significant inhibition”. Moreover, the remaining binding at 10 µM on DYRK1B is 6.6%. The dead cells in the assay on Frwt648 cells is on record as 35–98%.
